In brackets after ≈: the same amount, converted by molar mass.
Tested on: Escherichia coli
Experiment: Antimicrobial activity against Escherichia coli 9612 infected in CD-1 ICR mouse assessed as decrease in bacterial load in kidney at 12 mg/kg, sc after 72 hrs (reference value: 4.45 +/- 0.37 log10CFU/g)
Format: functional
Settings: route subcutaneous

Structure (SMILES) | log10CFU/g
CCN[C@@H]1C[C@H](N)[C@@H](O[C@@H]2OC(C(C)N)=CC[C@@H]2N)[C@H](O)[C@H]1O[C@H]1OC[C@](C)(O)[C@H](NC)[C@H]1O (some centres not stated) [VERTILMICIN] | 3.11

Tested on: Staphylococcus aureus
Experiment: Antimicrobial activity against methicillin-susceptible Staphylococcus aureus ATCC 29213 infected in CD-1 ICR mouse using 1.5 X 10^5 CFU inoculum
Format: functional
Settings: not given

Structure (SMILES) | ED50 [mg/kg]
CCN[C@@H]1C[C@H](N)[C@@H](O[C@@H]2OC(C(C)N)=CC[C@@H]2N)[C@H](O)[C@H]1O[C@H]1OC[C@](C)(O)[C@H](NC)[C@H]1O (some centres not stated) [VERTILMICIN] | 0.25

Tested on: Escherichia coli
Experiment: Antimicrobial activity against Escherichia coli 9612 infected in CD-1 ICR mouse assessed as decrease in bacterial load in kidney at 2.59 mg/kg, sc after 72 hrs (reference value: 4.45 +/- 0.37 log10CFU/g)
Format: functional
Settings: route subcutaneous

Structure (SMILES) | log10CFU/g
CCN[C@@H]1C[C@H](N)[C@@H](O[C@@H]2OC(C(C)N)=CC[C@@H]2N)[C@H](O)[C@H]1O[C@H]1OC[C@](C)(O)[C@H](NC)[C@H]1O (some centres not stated) [VERTILMICIN] | 3.32

Tested on: Staphylococcus aureus
Experiment: Antimicrobial activity against methicillin-susceptible Staphylococcus aureus 15 using 2.5 X 10^5 CFU inoculum by agar dilution method
Format: functional
Settings: not given

Structure (SMILES) | MIC [µg/mL]
CCN[C@@H]1C[C@H](N)[C@@H](O[C@@H]2OC(C(C)N)=CC[C@@H]2N)[C@H](O)[C@H]1O[C@H]1OC[C@](C)(O)[C@H](NC)[C@H]1O (some centres not stated) [VERTILMICIN] | 0.125 (≈ 0.255 µM)

Tested on: Enterococcus faecalis
Experiment: Antimicrobial activity against Enterococcus faecalis HH22 infected in CD-1 ICR mouse using 1.8 X 10^8 inoculum
Format: functional
Settings: not given

Structure (SMILES) | ED50 [mg/kg]
CCN[C@@H]1C[C@H](N)[C@@H](O[C@@H]2OC(C(C)N)=CC[C@@H]2N)[C@H](O)[C@H]1O[C@H]1OC[C@](C)(O)[C@H](NC)[C@H]1O (some centres not stated) [VERTILMICIN] | 7.11

Tested on: Escherichia coli
Experiment: Antimicrobial activity against Escherichia coli 9612 infected in new Zealand white rabbit with skin burn injury assessed as decrease in bacterial load in burn wound at 0.5 mg/ml after 24 hrs (reference value: 8.57 +/- 0.35 log10CFU/g)
Format: functional
Settings: not given

Structure (SMILES) | log10CFU/g
CCN[C@@H]1C[C@H](N)[C@@H](O[C@@H]2OC(C(C)N)=CC[C@@H]2N)[C@H](O)[C@H]1O[C@H]1OC[C@](C)(O)[C@H](NC)[C@H]1O (some centres not stated) [VERTILMICIN] | 6.33

Tested on: Staphylococcus aureus
Experiment: Antimicrobial activity against methicillin-resistant Staphylococcus aureus 9344 using 2.5 X 10^5 CFU inoculum by agar dilution method
Format: functional
Settings: not given

Structure (SMILES) | MIC [µg/mL]
CCN[C@@H]1C[C@H](N)[C@@H](O[C@@H]2OC(C(C)N)=CC[C@@H]2N)[C@H](O)[C@H]1O[C@H]1OC[C@](C)(O)[C@H](NC)[C@H]1O (some centres not stated) [VERTILMICIN] | 0.25 (≈ 0.511 µM)

Tested on: Escherichia coli
Experiment: Antimicrobial activity against Escherichia coli 9612 infected in CD-1 ICR mouse assessed as decrease in bacterial load in kidney at 20 mg/kg, sc after 72 hrs (reference value: 4.45 +/- 0.37 log10CFU/g)
Format: functional
Settings: route subcutaneous

Structure (SMILES) | log10CFU/g
CCN[C@@H]1C[C@H](N)[C@@H](O[C@@H]2OC(C(C)N)=CC[C@@H]2N)[C@H](O)[C@H]1O[C@H]1OC[C@](C)(O)[C@H](NC)[C@H]1O (some centres not stated) [VERTILMICIN] | 2.36

Tested on: Klebsiella pneumoniae
Experiment: microbe, parasite or virus in culture
Settings: 935
Description: Antimicrobial activity against Klebsiella pneumoniae 935 using 3 X 10^5 CFU inoculum by agar dilution method

Structure (SMILES) | MIC [µg/mL]
CCN[C@@H]1C[C@H](N)[C@@H](O[C@@H]2OC(C(C)N)=CC[C@@H]2N)[C@H](O)[C@H]1O[C@H]1OC[C@](C)(O)[C@H](NC)[C@H]1O (some centres not stated) [VERTILMICIN] | 0.5 (≈ 1.02 µM)

Tested on: Escherichia coli
Experiment: Antimicrobial activity against Escherichia coli 9612 infected in CD-1 ICR mouse assessed as decrease in bacterial load in kidney at 4.32 mg/kg, sc after 72 hrs (reference value: 4.45 +/- 0.37 log10CFU/g)
Format: functional
Settings: route subcutaneous

Structure (SMILES) | log10CFU/g
CCN[C@@H]1C[C@H](N)[C@@H](O[C@@H]2OC(C(C)N)=CC[C@@H]2N)[C@H](O)[C@H]1O[C@H]1OC[C@](C)(O)[C@H](NC)[C@H]1O (some centres not stated) [VERTILMICIN] | 3.22

Tested on: Escherichia coli
Experiment: Antimicrobial activity against Escherichia coli 1515 infected in CD-1 ICR mouse using 2.4 X 10^6 CFU inoculum
Format: functional
Settings: not given

Structure (SMILES) | ED50 [mg/kg]
CCN[C@@H]1C[C@H](N)[C@@H](O[C@@H]2OC(C(C)N)=CC[C@@H]2N)[C@H](O)[C@H]1O[C@H]1OC[C@](C)(O)[C@H](NC)[C@H]1O (some centres not stated) [VERTILMICIN] | 0.63

Tested on: Escherichia coli
Experiment: Antimicrobial activity against Escherichia coli 9612 infected in CD-1 ICR mouse using 3.7 X 10^4 CFU inoculum
Format: functional
Settings: not given

Structure (SMILES) | ED50 [mg/kg]
CCN[C@@H]1C[C@H](N)[C@@H](O[C@@H]2OC(C(C)N)=CC[C@@H]2N)[C@H](O)[C@H]1O[C@H]1OC[C@](C)(O)[C@H](NC)[C@H]1O (some centres not stated) [VERTILMICIN] | 0.67

Tested on: Escherichia coli
Experiment: microbe, parasite or virus in culture
Settings: ATCC 25922
Description: Antimicrobial activity against Escherichia coli ATCC 25922 using 1 X 10^5 CFU inoculum by agar dilution method

Structure (SMILES) | MIC [µg/mL]
CCN[C@@H]1C[C@H](N)[C@@H](O[C@@H]2OC(C(C)N)=CC[C@@H]2N)[C@H](O)[C@H]1O[C@H]1OC[C@](C)(O)[C@H](NC)[C@H]1O (some centres not stated) [VERTILMICIN] | 0.5 (≈ 1.02 µM)

Tested on: Staphylococcus aureus
Experiment: Antimicrobial activity against methicillin-susceptible Staphylococcus aureus 15 infected in CD-1 ICR mouse using 2.5 X 10^5 CFU inoculum
Format: functional
Settings: not given

Structure (SMILES) | ED50 [mg/kg]
CCN[C@@H]1C[C@H](N)[C@@H](O[C@@H]2OC(C(C)N)=CC[C@@H]2N)[C@H](O)[C@H]1O[C@H]1OC[C@](C)(O)[C@H](NC)[C@H]1O (some centres not stated) [VERTILMICIN] | 0.7

Tested on: Staphylococcus aureus
Experiment: Antimicrobial activity against methicillin-susceptible Staphylococcus aureus ATCC 29213 using 1.5 X 10^5 CFU inoculum by agar dilution method
Format: functional
Settings: not given

Structure (SMILES) | MIC [µg/mL]
CCN[C@@H]1C[C@H](N)[C@@H](O[C@@H]2OC(C(C)N)=CC[C@@H]2N)[C@H](O)[C@H]1O[C@H]1OC[C@](C)(O)[C@H](NC)[C@H]1O (some centres not stated) [VERTILMICIN] | 0.125 (≈ 0.255 µM)

Tested on: Escherichia coli
Experiment: Antimicrobial activity against Escherichia coli 9612 infected in new Zealand white rabbit with skin burn injury assessed as decrease in bacterial load in burn wound at 2 mg/ml after 24 hrs (reference value: 8.57 +/- 0.35 log10CFU/g)
Format: functional
Settings: not given

Structure (SMILES) | log10CFU/g
CCN[C@@H]1C[C@H](N)[C@@H](O[C@@H]2OC(C(C)N)=CC[C@@H]2N)[C@H](O)[C@H]1O[C@H]1OC[C@](C)(O)[C@H](NC)[C@H]1O (some centres not stated) [VERTILMICIN] | 5

Tested on: Enterococcus faecalis
Experiment: Antimicrobial activity against Enterococcus faecalis ATCC 29212 infected in CD-1 ICR mouse using 2.8 X 10^7 inoculum
Format: functional
Settings: not given

Structure (SMILES) | ED50 [mg/kg]
CCN[C@@H]1C[C@H](N)[C@@H](O[C@@H]2OC(C(C)N)=CC[C@@H]2N)[C@H](O)[C@H]1O[C@H]1OC[C@](C)(O)[C@H](NC)[C@H]1O (some centres not stated) [VERTILMICIN] | 4.35

Tested on: Klebsiella pneumoniae
Experiment: microbe, parasite or virus in culture
Settings: 967
Description: Antimicrobial activity against Klebsiella pneumoniae 967 using 2.6 X 10^5 CFU inoculum by agar dilution method

Structure (SMILES) | MIC [µg/mL]
CCN[C@@H]1C[C@H](N)[C@@H](O[C@@H]2OC(C(C)N)=CC[C@@H]2N)[C@H](O)[C@H]1O[C@H]1OC[C@](C)(O)[C@H](NC)[C@H]1O (some centres not stated) [VERTILMICIN] | 0.25 (≈ 0.511 µM)

Tested on: Staphylococcus aureus
Experiment: Antimicrobial activity against methicillin-resistant Staphylococcus aureus 9344 infected in CD-1 ICR mouse using 2.5 X 10^5 CFU inoculum
Format: functional
Settings: not given

Structure (SMILES) | ED50 [mg/kg]
CCN[C@@H]1C[C@H](N)[C@@H](O[C@@H]2OC(C(C)N)=CC[C@@H]2N)[C@H](O)[C@H]1O[C@H]1OC[C@](C)(O)[C@H](NC)[C@H]1O (some centres not stated) [VERTILMICIN] | 0.99

Tested on: Enterococcus faecalis
Experiment: Antimicrobial activity against Enterococcus faecalis ATCC 29212 using 2.8 X 10^7 by agar dilution method
Format: functional
Settings: not given

Structure (SMILES) | MIC [µg/mL]
CCN[C@@H]1C[C@H](N)[C@@H](O[C@@H]2OC(C(C)N)=CC[C@@H]2N)[C@H](O)[C@H]1O[C@H]1OC[C@](C)(O)[C@H](NC)[C@H]1O (some centres not stated) [VERTILMICIN] | 8 (≈ 16.3 µM)

Tested on: Escherichia coli
Experiment: Antimicrobial activity against Escherichia coli 9612 using 3.7 X 10^4 CFU inoculum by agar dilution method
Format: functional
Settings: not given

Structure (SMILES) | MIC [µg/mL]
CCN[C@@H]1C[C@H](N)[C@@H](O[C@@H]2OC(C(C)N)=CC[C@@H]2N)[C@H](O)[C@H]1O[C@H]1OC[C@](C)(O)[C@H](NC)[C@H]1O (some centres not stated) [VERTILMICIN] | 0.5 (≈ 1.02 µM)

Tested on: Klebsiella pneumoniae
Experiment: Antimicrobial activity against Klebsiella pneumoniae 967 infected in CD-1 ICR mouse using 2.6 X 10^5 CFU inoculum
Format: functional
Settings: not given

Structure (SMILES) | ED50 [mg/kg]
CCN[C@@H]1C[C@H](N)[C@@H](O[C@@H]2OC(C(C)N)=CC[C@@H]2N)[C@H](O)[C@H]1O[C@H]1OC[C@](C)(O)[C@H](NC)[C@H]1O (some centres not stated) [VERTILMICIN] | 0.18

Tested on: Klebsiella pneumoniae
Experiment: Antimicrobial activity against Klebsiella pneumoniae 935 infected in CD-1 ICR mouse using 3 X 10^5 CFU inoculum
Format: functional
Settings: not given

Structure (SMILES) | ED50 [mg/kg]
CCN[C@@H]1C[C@H](N)[C@@H](O[C@@H]2OC(C(C)N)=CC[C@@H]2N)[C@H](O)[C@H]1O[C@H]1OC[C@](C)(O)[C@H](NC)[C@H]1O (some centres not stated) [VERTILMICIN] | 0.29

Tested on: Escherichia coli
Experiment: Antimicrobial activity against Escherichia coli ATCC 25922 infected in CD-1 ICR mouse using 1 X 10^5 CFU inoculum
Format: functional
Settings: not given

Structure (SMILES) | ED50 [mg/kg]
CCN[C@@H]1C[C@H](N)[C@@H](O[C@@H]2OC(C(C)N)=CC[C@@H]2N)[C@H](O)[C@H]1O[C@H]1OC[C@](C)(O)[C@H](NC)[C@H]1O (some centres not stated) [VERTILMICIN] | 0.82

Tested on: Escherichia coli
Experiment: Antimicrobial activity against Escherichia coli 9612 infected in CD-1 ICR mouse assessed as decrease in bacterial load in kidney at 7.2 mg/kg, sc after 72 hrs (reference value: 4.45 +/- 0.37 log10CFU/g)
Format: functional
Settings: route subcutaneous

Structure (SMILES) | log10CFU/g
CCN[C@@H]1C[C@H](N)[C@@H](O[C@@H]2OC(C(C)N)=CC[C@@H]2N)[C@H](O)[C@H]1O[C@H]1OC[C@](C)(O)[C@H](NC)[C@H]1O (some centres not stated) [VERTILMICIN] | 3.07

Tested on: Enterococcus faecalis
Experiment: Antimicrobial activity against Enterococcus faecalis HH22 using 1.8 X 10^8 by agar dilution method
Format: functional
Settings: not given

Structure (SMILES) | MIC [µg/mL]
CCN[C@@H]1C[C@H](N)[C@@H](O[C@@H]2OC(C(C)N)=CC[C@@H]2N)[C@H](O)[C@H]1O[C@H]1OC[C@](C)(O)[C@H](NC)[C@H]1O (some centres not stated) [VERTILMICIN] | 8 (≈ 16.3 µM)

Tested on: Escherichia coli
Experiment: microbe, parasite or virus in culture
Settings: 1515
Description: Antimicrobial activity against Escherichia coli 1515 using 2.4 X 10^6 CFU inoculum by agar dilution method

Structure (SMILES) | MIC [µg/mL]
CCN[C@@H]1C[C@H](N)[C@@H](O[C@@H]2OC(C(C)N)=CC[C@@H]2N)[C@H](O)[C@H]1O[C@H]1OC[C@](C)(O)[C@H](NC)[C@H]1O (some centres not stated) [VERTILMICIN] | 0.5 (≈ 1.02 µM)

From ChEMBL document CHEMBL1649228, “In vivo antibacterial activity of vertilmicin, a new aminoglycoside antibiotic” (2009)
